Key:
[1] = system: sérum albumine bovine (BSA); assay: Immunostimulant effect of adjuvants: IgG1/IgG2a antibody response in mice vaccinated subcutaneously with BSA antigen; format: in vivo, souris; details: 21 days after vaccination, 100 µl s.c. per mouse, 10 µg BSA, salts at optimal concentration; for réponse lgG2a: represents cellular response; for réponse lgG1: represents humoral response
Protocol: Ces compositions thérapeutiques comprennent, à titre d'antigène de la sérum albumine bovine (BSA), Grade V, Sigma.
Ces compositions thérapeutiques (dose/souris) d'un volume de 100 µl mises en oeuvre comprenaient 10µg d'antigène et ont été injectées par voie sous-cutanée.
Les résultats ont été obtenus 21 jours après vaccination:
Les réponses IgG 1 sont représentatives de la réponse humorale,
Les réponses IgG 2a sont représentatives de la réponse cellulaire.

[2] = Local reactions (lesions and granulomas) at the injection site after subcutaneous injection in mice; format: in vivo, souris; details: 8 days after s.c. injection, 1000 µl, 10 µg BSA
Protocol: On a injecté à différents lots comprenant chacun 5 souris, une composition thérapeutique d'un volume de 1000 µl, comprenant 10 µg d'antigène (BSA), par voie sous-cutanée. On a évalué les réactions locales (lésions et granulomes) 8 jours après injection.

Row | Compound | réponse lgG2a [1] | réponse lgG1 [1] | réactions locales (lésions et granulomes) ([2]; souris 1) | réactions locales (lésions et granulomes) ([2]; souris 2) | réactions locales (lésions et granulomes) ([2]; souris 3) | réactions locales (lésions et granulomes) ([2]; souris 5)
1 | [OH][Al]([OH])[OH] [AlOH, hydroxyde d'Aluminium] | <1000 | 8000 |  |  |  | 
2 | CC(=O)[O-].[Al+3].[OH-].[OH-] [C2H5AlO4 (forme soluble), acétate d'Aluminium soluble (C2H5AlO4)] | 8000 | 64000 | 0 | 0 | 0 | 0
3 | CC(=O)[O-].CC(=O)[O-].[Al+3].[OH-] [C4H7AlO5 (forme insoluble), forme insoluble d'acétate d'Aluminium (C4H7AlO5)] | <1000 | <1000 |  |  |  | 
4 | phosphate d'Aluminium [AlPO4] | <1000 | <1000 |  |  |  | 
5 | salicylate d'Aluminium | 6000 | 48000 |  |  |  | 

Source: patent EP0939649B1, “ADDITIVE, IN PARTICULAR IN THE FORM OF AN EMULSION CONTAINING A TRIVALENT METAL CATION AND VACCINE COMPOSITION CONTAINING SAME” (priority 1996, dated 1998)
